Assay results from PMC6066796 (Antiviral Research, 2018).
Where two headings read alike, the source gives them in different places.

How the values were obtained:
[1] = test system: recombinant EBOV (Mayinga variant); assay type: cell-based, Ebola virus; settings: read-out: Approximate EC50 against recombinant reporter EBOV variants
RAVV (Ravn variant) = assay type: cell-based, Ravn virus
HeV = settings: cited from earlier work
NiV (Malaysian genotype) = settings: cited from earlier work

| Molecule | EC50 [1] | Reduction of infectious RAVV titers (RAVV (Ravn variant)) | EC50 (HeV) | EC50 (NiV (Malaysian genotype)) | Reduction of infectious RAVV titers (RAVV (Ravn variant); at 50 μM) |
| --- | --- | --- | --- | --- | --- |
| 2′-monofluoro-4′-azidocytidine [2′F-4′N3-C] | 3000 to 8000 nM | roughly 1.5 orders of magnitude |  |  |  |
| [N-]=[N+]=N[C@]1(CO)O[C@@H](n2ccc(N)nc2=O)[C@H](O)[C@@H]1O [R1479, 4′-azidocytidine] | ~2000 nM |  | 2400 nM | 1500 nM | over 4 orders of magnitude |
